Laboratory results published in ChEMBL document CHEMBL1137593, “Identification and optimisation of a series of substituted 5-pyridin-2-yl-thiophene-2-hydroxamic acids as potent histone deacetylase (HDAC) inhibitors” (Bioorg Med Chem Lett, 2007).

What was measured:
Histone deacetylase 1 = Histone deacetylase 1 (Homo sapiens, UniProt Q13547); test: Inhibition of HDAC activity measured by HDAC Fluorescent Activity Assay (mean of two experiments); format: functional
HCT-116 = test: cells; format: functional, cell-based; conditions: Homo sapiens;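 further: inhibition of HCT116 cell growth as proliferation read-out, each value averaged over two experiments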
Description: Inhibition of HCT116 cell proliferation (mean of two experiments)

MCF7 = test: Inhibition of MCF7 cell proliferation (mean of two experiments); format: functional, cell-based; conditions: Homo sapiens
MDA-MB-231 = test: cells; format: functional, cell-based; conditions: Homo sapiens
Description: Inhibition of MDA-MB-231 cell proliferation (mean of two experiments)

Chain of Histone deacetylase 1 (Q13547 whole entry): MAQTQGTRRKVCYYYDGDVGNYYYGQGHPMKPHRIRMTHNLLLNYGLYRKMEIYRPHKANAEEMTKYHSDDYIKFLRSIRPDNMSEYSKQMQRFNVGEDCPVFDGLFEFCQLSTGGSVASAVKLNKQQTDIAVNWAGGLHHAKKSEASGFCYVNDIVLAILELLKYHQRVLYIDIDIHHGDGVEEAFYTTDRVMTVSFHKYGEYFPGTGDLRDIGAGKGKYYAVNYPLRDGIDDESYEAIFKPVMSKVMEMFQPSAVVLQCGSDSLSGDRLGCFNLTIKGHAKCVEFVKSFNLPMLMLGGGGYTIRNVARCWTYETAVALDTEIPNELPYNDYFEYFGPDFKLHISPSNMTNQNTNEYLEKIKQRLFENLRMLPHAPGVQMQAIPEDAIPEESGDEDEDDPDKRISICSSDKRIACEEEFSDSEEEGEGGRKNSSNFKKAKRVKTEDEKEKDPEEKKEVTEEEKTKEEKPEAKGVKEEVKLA

SMILES | IC50 (Histone deacetylase 1) | IC50 (HCT-116) | IC50 (MCF7) | IC50 (MDA-MB-231)
O=C(NO)c1ccc(-c2ccc(CNCCc3c[nH]c4ccccc34)cn2)s1 | 8 nM | 180 nM | 120 nM | 
O=C(NO)c1ccc(-c2ccc(CNCc3ccc(-c4ccccc4)cc3)cn2)s1 | 7 nM | 180 nM | 150 nM | 
O=C(NO)c1ccc(-c2ccccc2)s1 | 900 nM |  | 31000 nM | 
COc1ccccc1CCNCc1ccc(-c2ccc(C(=O)NO)s2)nc1 | 17 nM | 80 nM | 60 nM | 
Cc1ccc(CCNCc2ccc(-c3ccc(C(=O)NO)s3)nc2)cc1 | 14 nM | 60 nM | 60 nM | 
O=C(NO)c1ccc(-c2cccnc2)s1 | 1130 nM |  |  | 
O=C(NO)c1ccc(-c2ccc(CNCc3ccc(Cl)cc3)cn2)s1 | 9 nM |  | 130 nM | 300 nM
O=C(NO)c1ccc(-c2cccc(CNCc3ccccc3)n2)s1 | 359 nM |  | 1900 nM | 
O=C(NO)c1ccc(-c2ccc(CNc3ccccc3)cn2)s1 | 16 nM |  | 370 nM | 630 nM
O=C(NO)c1ccc(-c2ccc(CCNCc3ccc4c(c3)OCO4)cn2)s1 | 9 nM | 110 nM | 70 nM | 
O=C(NO)c1ccc(-c2ccc(CNCc3ccccc3Cl)cn2)s1 | 7 nM |  | 110 nM | 170 nM
O=C(NO)c1ccc(-c2ccc(CCNCCc3ccccc3)cn2)s1 | 31 nM |  | 140 nM | 
O=C(NO)c1ccc(-c2ccc(CN3CCc4ccccc4C3)cn2)s1 | 30 nM |  | 220 nM | 860 nM
O=C(NO)c1ccc(-c2ccc(NCCc3ccccc3)cn2)s1 | 80 nM |  | 1470 nM | 3510 nM
O=C(NO)c1ccc(-c2ncccn2)s1 | 186 nM |  | 2120 nM | 
O=C(NO)c1ccc(-c2ccc(CCNCc3ccc(F)cc3)cn2)s1 | 13 nM | 140 nM | 90 nM | 
CN(Cc1ccccc1)Cc1ccc(-c2ccc(C(=O)NO)s2)nc1 | 35 nM |  | 150 nM | 370 nM
O=C(NO)c1ccc(-c2ccc(CNCCc3ccccc3F)cn2)s1 | 12 nM | 100 nM | 90 nM | 
